According to patent US9696323B2, “Biomarkers for chagas disease related cardiomyopathy” (THE BOARD OF REGENTS OF THE UNIVERSITY OF TEXAS SYSTEM, priority 2013, dated 2017):

Assays:
T. cruzi [1] = conditions: infected rats; BZ parasite-induced, PBN oxidative stress-induced (Wen et al. 2006, 2010); cited from earlier work
T. cruzi [2] = assay: Oxidative modification (carbonylation) of plasma proteins in chagasic rats treated with PBN and/or BZ; format: in vivo, rat; conditions: chagasic rat plasma; 5 of 11 carbonylated proteins (CFB, CFH, SERPRINA1, SERPINC1, PLG)
Text: Certain embodiments include biomarkers identified in a previous study. Parasite persistence and oxidative damage in the heart are known to be of pathological significance during Chagas disease (Zacks et al., (2005) An Acad Bras Cienc, 77, 695-715; Gupta et al., (2009) Interdiscip Perspect Infect Dis, 2009, 190354). […] In the previous study the inventors identified 92 proteins that were differentially expressed or oxidized in chagasic plasma. Functional analysis allocated a majority of these proteins to inflammation/immunity and lipid metabolism categories, and to molecular pathways associated with cardiovascular dysfunction, e.g., myocardial infarction, hypertrophy, and fibrosis, and pulmonary embolism and hypertension. Some proteins in chagasic rats treated with PBN and/or BZ were allocated to curative pathways (immune regulation and cardiac remodeling). The 2D-GE results were validated by Western blotting. […] Increased plasma levels of GSN, MYL2, and VIM were directly correlated with the severity of cardiac disease in human chagasic patients. […] These findings have utility in diagnosing disease severity and designing suitable therapy for management of human chagasic patients. […]

## CC(C)(C)/[N+]([O-])=C/c1ccccc1 [PBN]
T. cruzi [1]
  controlling parasite- and oxidative stress-induced pathology: beneficial effects
T. cruzi [2]
  oxidative modification of inflammation-associated plasma proteins: prevented the oxidative modification of five of these proteins
